Test results taken from patent US10493056B2, “Method of use of diterpenoid derivatives as anticancer agents” (Hong Kong Baptist University, priority 2016, dated 2019).
≈ marks a conversion by molar mass, not a printed value.

Tests used:
[1] = tested on: A375 human melanoma cell line; test: sulforhodamine B anti-proliferative assay, A375; format: cell-based; conditions: A375, 48 hours incubation, SRB; for IC50: Homo sapiens, A-375, read-out: Anti-proliferative activity, IC50 (concentration required to inhibit cell growth by 50%)
Procedure: (§1) Human colorectal carcinoma HCT-116 and HT-29 cells are routinely maintained in McCoy's 5A medium (Gibco) whereas human melanoma A375 cells and human pancreatic adenocarcinoma PANC-1 cells are cultured in DMEM (Gibco) supplemented with 10% fetal bovine serum (Gibco), 1% penicillin-streptomycin (Gibco) in a 5% CO2, 95% air humidified atmosphere at 37° C.
(§2) For the sulforhodamine B assay, different carcinoma cells were seeded in 96-well plates at a density of 5×10^3 cells/well and incubated with serial dilutions of ent-kaurene diterpenoids FA, FA1, FA2, FA3, FA4 or PA for 48 hours. After incubation, cells were treated with 50% trichloroacetic acid at 4° C. for at least 30 minutes for protein fixing. Cells were then washed with water 4 times prior to a complete dry down of the culture plate. To each well, 100 μL of 0.4% sulforhodamine B in 1% acetic acid was added. After 30-minute incubation at room temperature, cells were washed with 1% acetic acid 4 times. Fixed proteins were fully solubilized with 10 mM Tris base solution (pH 10, 200 μL/well). Spectrophotometric absorbance of samples were measured at 515 nm using a microplate reader (Bio-rad).

[2] = tested on: PANC-1 human pancreatic ductal adenocarcinoma cell line; test: sulforhodamine B anti-proliferative assay, PANC-1; format: cell-based; conditions: PANC-1, 48 hours incubation, SRB; for IC50: Homo sapiens, read-out: Anti-proliferative activity, IC50 (concentration required to inhibit cell growth by 50%)
Procedure: as §1, §2

[3] = tested on: HCT-116 human colorectal carcinoma cell line; test: sulforhodamine B anti-proliferative assay, HCT-116; format: cell-based; conditions: HCT-116, 48 hours incubation, SRB; for IC50: Homo sapiens, read-out: Anti-proliferative activity, IC50 (concentration required to inhibit cell growth by 50%)
Procedure: as §1, §2

[4] = tested on: HT-29 human colorectal carcinoma cell line; test: sulforhodamine B anti-proliferative assay, HT-29; format: cell-based; conditions: HT-29, 48 hours incubation, SRB; for IC50: Homo sapiens, read-out: Anti-proliferative activity, IC50 (concentration required to inhibit cell growth by 50%)
Procedure: as §1, §2

[5] = tested on: HCT-116 colon carcinoma cell-bearing nude mice; test: HCT-116 xenograft experiment in nude mice; format: in vivo, male BALB/c nude mice; conditions: for growth of xenograft tumor in terms of volume: 20 mg/kg i.p. every other day for 21 days, compared to paclitaxel 10 mg/kg (FIG. 4, FIG. 6)
Procedure: For the xenograft experiment, HCT-116 cells were implanted subcutaneously in the right and left flanks (1×10^6 cells in 100 μL) of male BALB/c nude mice (n=10/group), which were SPF class and aged 6-7 weeks old weighing between 20 g-25 g. Tumor size was monitored by measuring two perpendicular diameters with a caliper every other day. When tumors were formed to approximately 100 mm^3 seven days after the injection of HCT-116 cells, FA3 or PA was administered (20 mg/kg, every other day by intraperitoneal injection for a total of 21 days). To the paclitaxel group, injection of paclitaxel was given at 10 mg/kg to the nude mice whilst the vehicle group merely received the 2.5% EtOH and Cremphor EL solution, which was the dissolving solution for FA3, PA and paclitaxel. Tumor volume and body weight of mice were recorded at indicated time points during the course of experiment. Tumor volume was calculated as volume=length×width^2×0.5. Weight of tumor xenograft was assessed at the time of sacrificed.
The data are presented as mean±standard error of the mean (S.E.M.). Statistical differences among the experimental groups were tested by one-way analysis of variance (ANOVA). P-value<0.05 was considered as statistically significant.

HCT-116 cells = test: flow cytometric annexin V-FITC/propidium iodide apoptosis assay; format: cell-based, human; conditions: HCT-116, 0.25, 0.5 and 1.0 μg/mL for 48 hours, concentration-dependent (FIG. 2)
Procedure: From the flow cytometric analysis, the staining percentage of annexin V/FITC and propidium iodide (PI) is detected as percentage at Q1: necrosis (upper left quarter); Q2: late apoptosis (upper right quarter); Q3: live (lower left quarter); Q4: early apoptosis (lower right quarter).
For the flow cytometric assay, HCT-116 cells were seeded in 6-well plates at a density of 1×10^5 cells/well and incubated with serial dilutions of FA3 for 48 hours. Cells were collected by centrifugation, re-suspended in 500 μL of binding buffer containing 5 μL of propidium iodide and 5 μL of annexin V-FITC, and incubated for 15 minutes in dark. Signals of the cell suspension were then analyzed using a flow cytometer (BD) for apoptotic events.

In the case of `C=C1C(=O)[C@@]23[C@@H]4OC(C)(C)O[C@@H]2C[C@@H]2C(C)(C)CCC[C@@]2(COC(C)=O)[C@@H]3C(=O)C[C@@H]14` [FA2], the IC50 [1] is reported as over 2 µg/mL, the IC50 [2] is reported as over 2 µg/mL and the IC50 [3] is reported as over 2 µg/mL. It also gave an IC50 [4] of over 2 µg/mL.

For `C=C1C(=O)[C@@]23[C@H](O)C[C@@H]4C(C)(C)CCC[C@@]4(COC(C)=O)[C@@H]2C(=O)C[C@@H]1[C@H]3O` [FA3], the IC50 [1] was 0.668 µg/mL (≈ 1.71 µM), the “growth of xenograft tumor in terms of volume” value [5] was “more sufficiently restrained” and the “growth of xenograft tumor in terms of weight” value ([5]; 20 mg/kg i.p. every other day, day 21, compared to paclitaxel 10 mg/kg (FIG. 3)) was “more sufficiently restrained”. The “change of body weight” value ([5]; 21-day administration, tumor-bearing nude mice (FIG. 5)) was “does not lead to a significant loss of body weight”, the IC50 [2] was 0.413 µg/mL (≈ 1.06 µM) and the degree of apoptosis (HCT-116 cells) was “Substantial increase in the degree of apoptosis”. The IC50 [3] was 0.274 µg/mL (≈ 0.701 µM) and the IC50 [4] was 0.424 µg/mL (≈ 1.09 µM).

For `C=C1C(=O)[C@@]23[C@@H]4OC(C)(C)O[C@@H]2C[C@@H]2C(C)(C)CCC[C@]25CO[C@](O)(C[C@@H]14)[C@@H]53` [FA4], the IC50 [1] was over 2 µg/mL, the IC50 [2] was over 2 µg/mL and the IC50 [3] was 0.98 µg/mL (≈ 2.52 µM). For the same molecule, the IC50 [4] was over 2 µg/mL.

`C=C1C(=O)[C@@]23C(O)C[C@@H]4C(C)(C)CCCC4(COC(C)=O)[C@@H]2[C@@H](O)C[C@@H]1[C@H]3O` (stereo partly shown) [FA, flexicaulin A, reference compound] was tested, and the “Anti-proliferative activity, IC50 (concentration required to inhibit cell growth by 50%)” value [1] was 1.624 µg/mL, the “Anti-proliferative activity, IC50 (concentration required to inhibit cell growth by 50%)” value [2] was 1.024 µg/mL and the “Anti-proliferative activity, IC50 (concentration required to inhibit cell growth by 50%)” value [3] was 0.7215 µg/mL. The “Anti-proliferative activity, IC50 (concentration required to inhibit cell growth by 50%)” value [4] was 0.9732 µg/mL.

With `C=C1C(=O)[C@]23[C@H](O)C[C@@H]4C(C)(C)CCC[C@]45CO[C@](O)(C[C@@H]1[C@H]2O)[C@@H]53` [PA, pseudoirroratin A, reference compound] the “Anti-proliferative activity, IC50 (concentration required to inhibit cell growth by 50%)” value [1] was 0.8737 µg/mL, the “growth of xenograft tumor in terms of volume” value [5] was “not as efficient as paclitaxel” and the “Anti-proliferative activity, IC50 (concentration required to inhibit cell growth by 50%)” value [2] was 0.4396 µg/mL. For the same molecule, the “Anti-proliferative activity, IC50 (concentration required to inhibit cell growth by 50%)” value [3] was 0.2702 µg/mL and the “Anti-proliferative activity, IC50 (concentration required to inhibit cell growth by 50%)” value [4] was 0.4194 µg/mL.
